This assay addresses ROCK2 (Homo sapiens, UniProt O75116). Put plainly: ROCK assay: phosphorylation of FITC peptide substrate, LABCHIP 3000 mobility shift. Type of assay: biochemical. Particulars: 5 μM ATP, 1.5 μM peptide substrate; read-out: ROCK2 Activity (ROCK IC50 range). The gist of the method: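 IC50 values come from curve-fitting percent kinase inhibition across a compound dilution series. The reaction is started with Rho kinase variant in HEPES pH 7.5 buffer with MgCl2, Brij-35 and DTT, with 5 μM ATP, 1.5 μM FITC-labelled peptide and under 2% DMSO. After EDTA quench, product and substrate are separated by microfluidic mobility shift.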

Molecules are shown by their SMILES. Counter-ions that a name gives are not always drawn.

Chain of ROCK2 (O75116 whole entry, species assumed): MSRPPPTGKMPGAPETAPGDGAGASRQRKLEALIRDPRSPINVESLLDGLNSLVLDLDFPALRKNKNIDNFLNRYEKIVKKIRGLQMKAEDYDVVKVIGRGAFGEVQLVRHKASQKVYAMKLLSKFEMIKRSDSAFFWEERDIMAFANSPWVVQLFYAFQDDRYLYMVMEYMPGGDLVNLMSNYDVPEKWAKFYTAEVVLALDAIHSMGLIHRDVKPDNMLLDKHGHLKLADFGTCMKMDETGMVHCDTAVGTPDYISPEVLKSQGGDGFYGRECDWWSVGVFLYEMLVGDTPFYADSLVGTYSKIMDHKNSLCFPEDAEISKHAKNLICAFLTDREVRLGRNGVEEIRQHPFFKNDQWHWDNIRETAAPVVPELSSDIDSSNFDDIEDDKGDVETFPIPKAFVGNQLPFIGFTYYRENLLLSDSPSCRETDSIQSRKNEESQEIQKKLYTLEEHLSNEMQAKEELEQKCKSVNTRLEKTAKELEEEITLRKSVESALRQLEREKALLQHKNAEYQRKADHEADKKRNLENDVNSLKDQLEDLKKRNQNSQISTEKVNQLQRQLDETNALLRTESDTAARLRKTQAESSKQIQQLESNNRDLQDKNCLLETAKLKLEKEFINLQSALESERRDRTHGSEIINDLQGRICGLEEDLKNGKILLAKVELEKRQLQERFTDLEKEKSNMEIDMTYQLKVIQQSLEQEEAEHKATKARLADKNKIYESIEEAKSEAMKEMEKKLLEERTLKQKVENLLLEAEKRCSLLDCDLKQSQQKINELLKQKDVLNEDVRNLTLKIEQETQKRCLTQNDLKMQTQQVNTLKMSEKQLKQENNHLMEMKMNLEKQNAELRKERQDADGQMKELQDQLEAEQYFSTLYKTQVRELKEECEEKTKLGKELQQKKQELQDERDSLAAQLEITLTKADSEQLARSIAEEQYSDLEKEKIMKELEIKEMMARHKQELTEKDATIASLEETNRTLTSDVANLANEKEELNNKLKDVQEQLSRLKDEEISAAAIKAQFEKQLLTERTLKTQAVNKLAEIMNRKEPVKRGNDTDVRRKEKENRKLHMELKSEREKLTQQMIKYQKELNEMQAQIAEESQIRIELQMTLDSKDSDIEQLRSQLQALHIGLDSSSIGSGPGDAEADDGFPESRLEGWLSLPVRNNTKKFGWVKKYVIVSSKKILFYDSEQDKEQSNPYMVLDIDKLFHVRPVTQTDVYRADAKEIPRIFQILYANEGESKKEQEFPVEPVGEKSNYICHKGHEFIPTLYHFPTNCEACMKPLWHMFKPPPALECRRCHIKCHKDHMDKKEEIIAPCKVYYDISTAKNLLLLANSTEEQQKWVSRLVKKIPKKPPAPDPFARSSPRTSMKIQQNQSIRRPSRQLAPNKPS

For orientation: IC50 means the concentration that gives 50% inhibition. Consider `O=C(N[C@H]1CC2(C1)C[C@H](c1n[nH]c(=O)c3ccccc31)C2)c1cnn2cc(CO)ccc12` (stereo partly drawn) [Example 213, 6-(hydroxymethyl)-N-((aR)-6-(4-oxo-3,4-dihydrophthalazin-1-yl)spiro[3.3]heptan-2-yl)pyrazolo[1,5-a]pyridine-3-carboxamide], for which the IC50 was 5.1 to 15 nM.

Consider `CC(C)(O)Cn1nc(C(=O)NC2CC3(C2)CC(c2n[nH]c(=O)c4ccccc24)C3)c2ccc(F)cc21` [Example 31, 6-fluoro-1-(2-hydroxy-2-methylpropyl)-N-[(aR)-6-(4-oxo-3,4-dihydrophthalazin-1-yl)spiro[3.3]heptan-2-yl]-1H-indazole-3-carboxamide], for which the IC50 fell in the range of 2.01 to 5 nM.

For `O=C(N[C@H]1CC2(C1)C[C@H](c1n[nH]c(=O)c3ccccc31)C2)N1CC2(CCNCC2)c2ccccc21` (stereo partly drawn) [Example 265, N-((aR)-6-(4-oxo-3,4-dihydrophthalazin-1-yl)spiro[3.3]heptan-2-yl)spiro[indoline-3,4′-piperidine]-1-carboxamide], the concentration for half-maximal inhibition (IC50) was 100 to 2100 nM.

As for `O=C(N[C@H]1CC2(C1)C[C@H](c1n[nH]c(=O)c3ccccc31)C2)c1cnn2cc(OC[C@@H](O)C(F)(F)F)ccc12` (stereo partly drawn) [Example 119, N-((aR)-6-(4-oxo-3,4-dihydrophthalazin-1-yl)spiro[3.3]heptan-2-yl)-6-(3,3,3-trifluoro-2-hydroxypropoxy)pyrazolo[1,5-a]pyridine-3-carboxamide], the IC50 was in the range of 0.2 to 2 nM.

As to `O=C(NC1CC2(C1)CC(c1n[nH]c(=O)c3ccccc13)C2)C1Cc2ccccc2C1` (stereo not shown) [Example 1, N-[6-(4-oxo-3,4-dihydrophthalazin-1-yl)spiro[3.3]heptan-2-yl]-2,3-dihydro-1H-indene-2-carboxamide], the IC50 was in the range of 100 to 2100 nM.

`N#CCCc1ccc2c(C(=O)NC3CC4(C3)CC(c3n[nH]c(=O)c5ccccc35)C4)cnn2c1` [Example 207, 6-(2-cyanoethyl)-N-((aR)-6-(4-oxo-3,4-dihydrophthalazin-1-yl)spiro[3.3]heptan-2-yl)pyrazolo[1,5-a]pyridine-3-carboxamide]: the IC50 lay in the range of 2.01 to 5 nM.

For the molecule `[H][C@]1(c2n[nH]c(=O)c3ccccc32)C[C@]2(C[C@@H](NC(=O)c3ccc(-c4cnn(C(C)C)c4)c(F)c3)C2)C1` (stereo partly drawn) [Example 446, 3-fluoro-4-(1-isopropyl-1H-pyrazol-4-yl)-N-((aR)-6-(4-oxo-3,4-dihydrophthalazin-1-yl)spiro[3.3]heptan-2-yl)benzamide], the IC50 was 2.01 to 5 nM.

In the case of `O=C(NC1CC2(C1)CC(c1n[nH]c(=O)c3ccccc13)C2)c1cnn2cc(-n3ccccc3=O)ccc12` (stereo not drawn) [Example 169, N-((αR)-6-(4-oxo-3,4-dihydrophthalazin-1-yl)spiro[3.3]heptan-2-yl)-6-(2-oxopyridin-1(2H)-yl)pyrazolo[1,5-α]pyridine-3-carboxamide], the IC50 lay in the range of 5.1 to 15 nM.

In the case of `CC(C)(C)n1cc(-c2ccc3c(c2)CCN3C(=O)NC2CC3(C2)CC(c2n[nH]c(=O)c4ccccc24)C3)cn1` [Example 242, 5-(1-(tert-butyl)-1H-pyrazol-4-yl)-N-((aR)-6-(4-oxo-3,4-dihydrophthalazin-1-yl)spiro[3.3]heptan-2-yl)indoline-1-carboxamide], the IC50 fell in the range of 2.01 to 5 nM.

Take `[H][C@]1(c2n[nH]c(=O)c3ccccc32)C[C@]2(C[C@@H](NC(=O)c3cc4n(n3)CCNC4=O)C2)C1` (stereo partly drawn) [Example 415, 4-oxo-N-((aR)-6-(4-oxo-3,4-dihydrophthalazin-1-yl)spiro[3,3]heptan-2-yl)-4,5,6,7-tetrahydropyrazolo[1,5-a]pyrazine-2-carboxamide]: the IC50 was in the range of 100 to 2100 nM.

Turning to `[H][C@]1(c2n[nH]c(=O)c3ccccc32)C[C@]2(C[C@@H](NC(=O)c3ccc(-c4cnn(CC)c4)c(F)c3)C2)C1` (stereo partly drawn) [Example 445, 4-(1-ethyl-1H-pyrazol-4-yl)-3-fluoro-N-((aR)-6-(4-oxo-3,4-dihydrophthalazin-1-yl)spiro[3.3]heptan-2-yl)benzamide], the IC50 lay in the range of 15.1 to 100 nM.

Take `[2H]C([2H])([2H])n1cc(-c2ccc(C(=O)N[C@H]3CC4(C3)C[C@H](c3n[nH]c(=O)c5ccccc53)C4)cc2F)cn1` (stereo partly drawn) [Example 427, 3-fluoro-4-(1-d3-methyl-1H-pyrazol-4-yl)-N-((aR)-6-(4-oxo-3,4-dihydrophthalazin-1-yl)spiro[3.3]heptan-2-yl)benzamide]: the concentration for half-maximal inhibition (IC50) was in the range of 5.1 to 15 nM.

For `[H][C@]1(c2n[nH]c(=O)c3ccccc32)C[C@@]2(C[C@H](N3C[C@@H](Cc4ccccc4)NC3=O)C2)C1` (stereo partly drawn) [Example 459, 4-((aR)-6-((R)-4-benzyl-2-oxoimidazolidin-1-yl)spiro[3.3]heptan-2-yl)phthalazin-1(2H)-one], the IC50 was in the range of 100 to 2100 nM.

With `O=C(N[C@H]1CC2(C1)C[C@H](c1n[nH]c(=O)c3ccccc31)C2)c1cnn2cc(OCCN3CC(F)C3)ccc12` (stereo partly drawn) [Example 182, 6-(2-(3-fluoroazetidin-1-yl)ethoxy)-N-((aR)-6-(4-oxo-3,4-dihydrophthalazin-1-yl)spiro[3.3]heptan-2-yl)pyrazolo[1,5-a]pyridine-3-carboxamide], the IC50 was 2.01 to 5 nM.

`CN(C)CCOc1ccc2c(C(=O)NC3CC4(C3)CC(c3n[nH]c(=O)c5ccccc35)C4)cnn2c1` [Example 183, 6-(2-(dimethylamino)ethoxy)-N-((aR)-6-(4-oxo-3,4-dihydrophthalazin-1-yl)spiro[3.3]heptan-2-yl)pyrazolo[1,5-a]pyridine-3-carboxamide]: the IC50 lay within 2.01 to 5 nM.

Consider `O=C(NC1CC2(C1)CC(c1n[nH]c(=O)c3ccccc13)C2)c1cnn2cc(CCC(F)(F)F)ccc12` [Example 206, N-((aR)-6-(4-oxo-3,4-dihydrophthalazin-1-yl)spiro[3.3]heptan-2-yl)-6-(3,3,3-trifluoropropyl)pyrazolo[1,5-a]pyridine-3-carboxamide], for which the IC50 lay in the range of 0.2 to 2 nM.

`[H][C@]1(c2n[nH]c(=O)c3ccccc32)C[C@]2(C[C@@H](NC(=O)c3cnc4cc(N(C)CC(C)(C)O)ccn34)C2)C1` (stereo partly drawn) [Example 399, 7-((2-hydroxy-2-methyl-propyl)(methyl)amino)-N-((aR)-6-(4-oxo-3,4-dihydrophthalazin-1-yl)spiro[3.3]heptan-2-yl)imidazo[1,2-a]pyridine-3-carboxamide]: the IC50 was in the range of 2.01 to 5 nM.

Regarding `CC(C)(O)Cn1nc(C(=O)NC2CC3(C2)CC(c2n[nH]c(=O)n4cccc24)C3)c2ccccc21` (stereo not shown) [Example 278, 1-(2-hydroxy-2-methylpropyl)-N-(6-(4-oxo-3,4-dihydropyrrolo[1,2-d][1,2,4]triazin-1-yl)spiro[3.3]heptan-2-yl)-1H-indazole-3-carboxamide, TFA], the IC50 lay within 5.1 to 15 nM.

In the case of `[H][C@]1(c2n[nH]c(=O)c3ccccc32)C[C@]2(C[C@@H](NC(=O)c3cn4ccc(-c5cccnc5)cc4n3)C2)C1` (stereo partly shown) [Example 453], the IC50 was in the range of 15.1 to 100 nM.

Turning to `[H][C@]1(c2n[nH]c(=O)c3ccccc32)C[C@]2(C[C@@H](NC(=O)c3cn4ccc(Br)cc4n3)C2)C1` (stereo partly drawn) [Example 374, 7-bromo-N-((aR)-6-(4-oxo-3,4-dihydrophthalazin-1-yl)spiro[3.3]heptan-2-yl)imidazo[1,2-a]pyridine-2-carboxamide], the IC50 was in the range of 15.1 to 100 nM.

For the molecule `CN(C)c1ccc(C(=O)NC2CC3(C2)CC(c2n[nH]c(=O)c4ccccc24)C3)cc1` (stereo not shown) [Example 2, 4-(dimethylamino)-N-[6-(4-oxo-3,4-dihydrophthalazin-1-yl)spiro[3.3]heptan-2-yl]benzamide], the IC50 was in the range of 100 to 2100 nM.

As to `[H][C@]1(c2n[nH]c(=O)c3ccccc32)C[C@]2(C[C@@H](NC(=O)c3ccc(-n4cncn4)cc3)C2)C1` (stereo partly drawn) [Example 348, N-((aR)-6-(4-oxo-3,4-dihydrophthalazin-1-yl)spiro[3.3]heptan-2-yl)-4-(1H-1,2,4-triazol-1-yl)benzamide], the IC50 fell in the range of 15.1 to 100 nM.

Regarding `O=C(NC1CC2(C1)CC(c1n[nH]c(=O)c3ccccc13)C2)c1cnn2cc(OC3CC(F)(F)C3)ccc12` (stereo not drawn) [Example 138, 6-(3,3-difluorocyclobutoxy)-N-((αR)-6-(4-oxo-3,4-dihydrophthalazin-1-yl)spiro[3.3]heptan-2-yl)pyrazolo[1,5-α]pyridine-3-carboxamide], the IC50 fell in the range of 0.2 to 2 nM.

For `CC(=O)Nc1ccc2c(C(=O)NC3CC4(C3)CC(c3n[nH]c(=O)c5ccccc35)C4)noc2c1` [Example 291, 6-acetamido-N-((aR)-6-(4-oxo-3,4-dihydrophthalazin-1-yl)spiro[3.3]heptan-2-yl)benzo[d]isoxazole-3-carboxamide], the IC50 lay within 5.1 to 15 nM.

On to `Cn1cc(-c2ccc3c(C(=O)NC4CC5(C4)CC(c4n[nH]c(=O)c6ccccc46)C5)nn(CC(C)(C)O)c3c2)nn1` (stereo not shown) [Example 154, 1-(2-hydroxy-2-methylpropyl)-6-(1-methyl-1H-1,2,3-triazol-4-yl)-N-((αR)-6-(4-oxo-3,4-dihydrophthalazin-1-yl)spiro[3.3]heptan-2-yl)-1H-indazole-3-carboxamide], for which the IC50 was 2.01 to 5 nM.

As to `[H][C@]1(c2n[nH]c(=O)c3ccccc32)C[C@]2(C[C@@H](NC(=O)c3ccc(-c4cnn(C5CCOCC5)c4)c(F)c3)C2)C1` (stereo partly drawn) [Example 449, 3-fluoro-N-((aR)-6-(4-oxo-3,4-dihydrophthalazin-1-yl)spiro[3.3]heptan-2-yl)-4-(1-(tetrahydro-2H-pyran-4-yl)-1H-pyrazol-4-yl)benzamide], the IC50 was 5.1 to 15 nM.

On to `[H][C@]1(c2n[nH]c(=O)c3ccccc32)C[C@]2(C[C@@H](NC(=O)c3cnc4ccc(F)cn34)C2)C1` (stereo partly drawn) [Example 408, 6-fluoro-N-((aR)-6-(4-oxo-3,4-dihydrophthalazin-1-yl)spiro[3.3]heptan-2-yl)imidazo[1,2-a]pyridine-3-carboxamide], for which the IC50 lay in the range of 2.01 to 5 nM.

Regarding `[H][C@]1(c2n[nH]c(=O)c3ccccc32)C[C@]2(C[C@@H](NC(=O)c3ccc(-c4cnn(C)c4)c(OC)c3)C2)C1` (stereo partly drawn) [Example 422, 3-methoxy-4-(1-methyl-1H-pyrazol-4-yl)-N-((aR)-6-(4-oxo-3,4-dihydrophthalazin-1-yl)spiro[3.3]heptan-2-yl)benzamide], the IC50 is 2.01 to 5 nM.

(Values after patent publication US9902702B2, “Spirocycloheptanes as inhibitors of rock” (BRISTOL-MYERS SQUIBB COMPANY, priority 2014, dated 2018).)
